≈ marks a conversion by molar mass, not a printed value.
How the values were obtained:
Assay in all cases: MIC, microdilution broth method (NCCLS)
Type in all cases: cell-based
S. aureus ATCC29213 = conditions: B: S. aureus ATCC29213, 35° C., 16-20 hours
Summary of the method: (§1)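 Cation-adjusted Mueller-Hinton broth held two-fold serial dilutions of each compound. Wells received about 5×10^4 CFU of test organism and were incubated at 35° C. for 16-20 hours.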

E. coli OC2605 = conditions: A: E. coli OC2605, 35° C., 16-20 hours
Summary of the method: as §1

E. faecalis ATCC29212 = conditions: C: E. faecalis ATCC29212, 35° C., 16-20 hours
Summary of the method: as §1

S. pneumoniae ATCC49619 = conditions: D: S. pneumoniae ATCC49619, 35° C., 16-20 hours
Summary of the method: as §1

H. influenzae ATCC49247 = conditions: E: H. influenzae ATCC49247, 35° C., 16-20 hours
Summary of the method: as §1

Row | SMILES | MIC (S. aureus ATCC29213) [µg/mL] | MIC (E. coli OC2605) [µg/mL] | MIC (E. faecalis ATCC29212) | MIC (S. pneumoniae ATCC49619) | MIC (H. influenzae ATCC49247) [µg/mL]
1 | CC[C@H]1OC(=O)[C@H](C)C(=O)[C@H](C)[C@@H](O[C@@H]2O[C@H](C)C[C@H](N(C)C)[C@H]2O)[C@](C)(OC(=O)NC/C=C/c2cccc(-n3cncn3)n2)C[C@@H](C)C(=O)[C@H](C)[C@H]2NC(=O)O[C@@]21C [Compound 51] | 0.5 (≈ 0.605 µM) | >16 | 0.12 µg/mL (≈ 0.145 µM) | 0.06 µg/mL (≈ 0.0726 µM) | 8 (≈ 9.69 µM)
2 | CC[C@H]1OC(=O)[C@H](C)C(=O)[C@H](C)[C@@H](O[C@@H]2O[C@H](C)C[C@H](N(C)C)[C@H]2O)[C@](C)(OC(=O)NC/C=C/c2cncc3ccccc23)C[C@@H](C)C(=O)[C@H](C)[C@H]2NC(=O)O[C@@]21C [Compound 52] | 0.25 (≈ 0.309 µM) | 8 (≈ 9.89 µM) | 0.12 µg/mL (≈ 0.148 µM) | 0.03 µg/mL (≈ 0.0371 µM) | 2 (≈ 2.47 µM)
3 | CC[C@H]1OC(=O)[C@H](C)C(=O)[C@H](C)[C@@H](O[C@@H]2O[C@H](C)C[C@H](N(C)C)[C@H]2O)[C@](C)(OC(=O)NC/C=C/c2ccc(-n3cncn3)c(F)c2)C[C@@H](C)C(=O)[C@H](C)[C@H]2NC(=O)O[C@@]21C [Compound 53] | 0.25 (≈ 0.297 µM) | 16 (≈ 19 µM) | 0.12 µg/mL (≈ 0.142 µM) | 0.03 µg/mL (≈ 0.0356 µM) | 4 (≈ 4.75 µM)
4 | CC[C@H]1OC(=O)[C@H](C)C(=O)[C@H](C)[C@@H](O[C@@H]2O[C@H](C)C[C@H](N(C)C)[C@H]2O)[C@](C)(OC(=O)NCC=C(c2ccccc2)c2ccccc2)C[C@@H](C)C(=O)[C@H](C)[C@H]2NC(=O)O[C@@]21C [Compound 54] | 1 (≈ 1.2 µM) | >16 | 0.5 µg/mL (≈ 0.6 µM) | 0.12 µg/mL (≈ 0.144 µM) | 2 (≈ 2.4 µM)
5 | CC[C@H]1OC(=O)[C@H](C)C(=O)[C@H](C)[C@@H](O[C@@H]2O[C@H](C)C[C@H](N(C)C)[C@H]2O)[C@](C)(OC(=O)NCc2ccc(-n3cncn3)c(F)c2)C[C@@H](C)C(=O)[C@H](C)[C@H]2NC(=O)O[C@@]21C [Compound 55] | 0.5 (≈ 0.612 µM) | 16 (≈ 19.6 µM) | 0.12 µg/mL (≈ 0.147 µM) | 0.03 µg/mL (≈ 0.0367 µM) | 4 (≈ 4.9 µM)
6 | CC[C@H]1OC(=O)[C@H](C)C(=O)[C@H](C)[C@@H](O[C@@H]2O[C@H](C)C[C@H](N(C)C)[C@H]2O)[C@](C)(OC(=O)NCc2ccc(-c3ccccn3)s2)C[C@@H](C)C(=O)[C@H](C)[C@H]2NC(=O)O[C@@]21C [Compound 56] | 0.25 (≈ 0.307 µM) | 8 (≈ 9.82 µM) | 0.06 µg/mL (≈ 0.0736 µM) | ≦0.015 μg/mL | 2 (≈ 2.45 µM)
7 | CC[C@H]1OC(=O)[C@H](C)C(=O)[C@H](C)[C@@H](O[C@@H]2O[C@H](C)C[C@H](N(C)C)[C@H]2O)[C@](C)(OC(=O)NC/C=C/c2ccc(-c3ccccn3)s2)C[C@@H](C)C(=O)[C@H](C)[C@H]2NC(=O)O[C@@]21C [Compound 57] | 0.25 (≈ 0.297 µM) | 16 (≈ 19 µM) | 0.12 µg/mL (≈ 0.143 µM) | 0.03 µg/mL (≈ 0.0357 µM) | 2 (≈ 2.38 µM)
8 | CC[C@H]1OC(=O)[C@H](C)C(=O)[C@H](C)[C@@H](O[C@@H]2O[C@H](C)C[C@H](N(C)C)[C@H]2O)[C@](C)(OC(=O)NC/C=C/c2ccc(-n3cccn3)c(F)c2)C[C@@H](C)C(=O)[C@H](C)[C@H]2NC(=O)O[C@@]21C [Compound 58] | 0.25 (≈ 0.297 µM) | >16 | 0.12 µg/mL (≈ 0.143 µM) | 0.06 µg/mL (≈ 0.0713 µM) | 4 (≈ 4.75 µM)

Next, values leading:

Row | MIC (S. aureus ATCC29213) [µg/mL] | MIC (E. coli OC2605) [µg/mL] | MIC (E. faecalis ATCC29212) | MIC (S. pneumoniae ATCC49619) | MIC (H. influenzae ATCC49247) [µg/mL] | SMILES
9 | 0.5 (≈ 0.613 µM) | >16 | ≦0.25 μg/mL | 0.03 µg/mL (≈ 0.0368 µM) | 4 (≈ 4.9 µM) | CC[C@H]1OC(=O)[C@H](C)C(=O)[C@H](C)[C@@H](O[C@@H]2O[C@H](C)C[C@H](N(C)C)[C@H]2O)[C@](C)(OC(=O)NCc2ccc(-n3cccn3)c(F)c2)C[C@@H](C)C(=O)[C@H](C)[C@H]2NC(=O)O[C@@]21C [Compound 59]
10 | 1 (≈ 1.18 µM) | >16 | 0.5 µg/mL (≈ 0.588 µM) | 0.25 µg/mL (≈ 0.294 µM) | 8 (≈ 9.41 µM) | CC[C@H]1OC(=O)[C@H](C)C(=O)[C@H](C)[C@@H](O[C@@H]2O[C@H](C)C[C@H](N(C)C)[C@H]2O)[C@](C)(OC(=O)NC/C=C/C=C/c2ccc(-n3cccn3)cc2)C[C@@H](C)C(=O)[C@H](C)[C@H]2NC(=O)O[C@@]21C [Compound 60]
11 | 0.5 (≈ 0.627 µM) | 16 (≈ 20.1 µM) | 0.06 µg/mL (≈ 0.0752 µM) | 0.03 µg/mL (≈ 0.0376 µM) | 2 (≈ 2.51 µM) | CC[C@H]1OC(=O)[C@H](C)C(=O)[C@H](C)[C@@H](O[C@@H]2O[C@H](C)C[C@H](N(C)C)[C@H]2O)[C@](C)(OC(=O)NCc2cnn(-c3ccccc3)c2)C[C@@H](C)C(=O)[C@H](C)[C@H]2NC(=O)O[C@@]21C [Compound 61]
12 | 0.25 (≈ 0.303 µM) | >16 | 0.12 µg/mL (≈ 0.146 µM) | 0.06 µg/mL (≈ 0.0728 µM) | 4 (≈ 4.85 µM) | CC[C@H]1OC(=O)[C@H](C)C(=O)[C@H](C)[C@@H](O[C@@H]2O[C@H](C)C[C@H](N(C)C)[C@H]2O)[C@](C)(OC(=O)NC/C=C/c2cnn(-c3ccccc3)c2)C[C@@H](C)C(=O)[C@H](C)[C@H]2NC(=O)O[C@@]21C [Compound 62]
13 | 1 (≈ 1.23 µM) | >16 | 0.12 µg/mL (≈ 0.148 µM) | 0.03 µg/mL (≈ 0.0369 µM) | 4 (≈ 4.93 µM) | CC[C@H]1OC(=O)[C@H](C)C(=O)[C@H](C)[C@@H](O[C@@H]2O[C@H](C)C[C@H](N(C)C)[C@H]2O)[C@](C)(OC(=O)NCc2ccc(-n3cc(C)cn3)cc2)C[C@@H](C)C(=O)[C@H](C)[C@H]2NC(=O)O[C@@]21C [Compound 64]
14 | 2 (≈ 2.47 µM) | >16 | 0.25 µg/mL (≈ 0.309 µM) | 0.06 µg/mL (≈ 0.0741 µM) | 8 (≈ 9.88 µM) | CC[C@H]1OC(=O)[C@H](C)C(=O)[C@H](C)[C@@H](O[C@@H]2O[C@H](C)C[C@H](N(C)C)[C@H]2O)[C@](C)(OC(=O)NCc2cccc(-c3ncccn3)c2)C[C@@H](C)C(=O)[C@H](C)[C@H]2NC(=O)O[C@@]21C [Compound 65]
15 | 0.5 (≈ 0.598 µM) | >16 | 0.12 µg/mL (≈ 0.144 µM) | 0.06 µg/mL (≈ 0.0718 µM) | 4 (≈ 4.78 µM) | CC[C@H]1OC(=O)[C@H](C)C(=O)[C@H](C)[C@@H](O[C@@H]2O[C@H](C)C[C@H](N(C)C)[C@H]2O)[C@](C)(OC(=O)NC/C=C/c2cccc(-c3ncccn3)c2)C[C@@H](C)C(=O)[C@H](C)[C@H]2NC(=O)O[C@@]21C [Compound 66]
16 | 0.25 (≈ 0.298 µM) | >16 | 0.25 µg/mL (≈ 0.298 µM) | 0.06 µg/mL (≈ 0.0716 µM) | 4 (≈ 4.77 µM) | CC[C@H]1OC(=O)[C@H](C)C(=O)[C@H](C)[C@@H](O[C@@H]2O[C@H](C)C[C@H](N(C)C)[C@H]2O)[C@](C)(OC(=O)NC/C=C/c2ccc(-n3cc(C)cn3)cc2)C[C@@H](C)C(=O)[C@H](C)[C@H]2NC(=O)O[C@@]21C [Compound 67]
17 | 0.25 (≈ 0.294 µM) | >16 | 0.12 µg/mL (≈ 0.141 µM) | 0.03 µg/mL (≈ 0.0353 µM) | 4 (≈ 4.71 µM) | CC[C@H]1OC(=O)[C@H](C)C(=O)[C@H](C)[C@@H](O[C@@H]2O[C@H](C)C[C@H](N(C)C)[C@H]2O)[C@](C)(OC(=O)NC/C=C/c2ccc(-c3nccc(C)n3)cc2)C[C@@H](C)C(=O)[C@H](C)[C@H]2NC(=O)O[C@@]21C [Compound 68]
18 | 0.5 (≈ 0.607 µM) | >16 | 0.12 µg/mL (≈ 0.146 µM) | 0.03 µg/mL (≈ 0.0364 µM) | 8 (≈ 9.71 µM) | CC[C@H]1OC(=O)[C@H](C)C(=O)[C@H](C)[C@@H](O[C@@H]2O[C@H](C)C[C@H](N(C)C)[C@H]2O)[C@](C)(OC(=O)NCc2ccc(-c3nccc(C)n3)cc2)C[C@@H](C)C(=O)[C@H](C)[C@H]2NC(=O)O[C@@]21C [Compound 69]
19 | 0.25 (≈ 0.298 µM) | 16 (≈ 19 µM) | 0.12 µg/mL (≈ 0.143 µM) | 0.03 µg/mL (≈ 0.0357 µM) | 4 (≈ 4.76 µM) | CC[C@H]1OC(=O)[C@H](C)C(=O)[C@H](C)[C@@H](O[C@@H]2O[C@H](C)C[C@H](N(C)C)[C@H]2O)[C@](C)(OC(=O)NCc2ccc(-c3nccc(OC)n3)cc2)C[C@@H](C)C(=O)[C@H](C)[C@H]2NC(=O)O[C@@]21C [Compound 70]

— patent US6613747B2, “6-O-carbamoyl ketolide antibacterials” (Ortho-McNeil Pharmaceutical, Inc., priority 2000, dated 2003)
